Results published in the NIST ThermoML archive (doi:10.1021/je900478c).
± gives the expanded uncertainty stated by the source.

Experiment: refractive index (Na D-line) (dimensionless); xn = mol fraction of the nth substance listed
Conditions: 101 kPa, Liquid, Standard Abbe refractometry

CCCCOCCO [2-butoxyethan-1-ol] + O
refractive index
Conditions	x1 = 0.1003	x1 = 0.2	x1 = 0.3	x1 = 0.4	x1 = 0.5	x1 = 0.6	x1 = 0.7	x1 = 0.7999	x1 = 0.9	x1 = 1
283.15 K	1.3785 ± 0.0008	1.3965 ± 0.00041	1.4061 ± 0.00042	1.4118 ± 0.00046	1.4156 ± 0.00048	1.41823 ± 0.00049	1.4199 ± 0.00051	1.4212 ± 0.00052	1.4221 ± 0.00053	1.4226 ± 0.00054
293.15 K	1.37658 ± 0.00046	1.39418 ± 0.00048	1.40355 ± 0.0005	1.4091 ± 0.00051	1.4128 ± 0.00052	1.41532 ± 0.00053	1.41695 ± 0.00054	1.41815 ± 0.00055	1.41905 ± 0.00056	1.4196 ± 0.00056
303.15 K	1.374 ± 0.00048	1.39115 ± 0.00051	1.40025 ± 0.00054	1.40562 ± 0.00055	1.4092 ± 0.00056	1.4116 ± 0.00057	1.41315 ± 0.00058	1.4143 ± 0.00059	1.4152 ± 0.0006	1.4157 ± 0.00061
313.15 K	1.37118 ± 0.0011	1.3878 ± 0.00054	1.39655 ± 0.00056	1.40175 ± 0.00057	1.4052 ± 0.00058	1.4075 ± 0.00059	1.40898 ± 0.0006	1.41012 ± 0.00061	1.41095 ± 0.00061	1.41139 ± 0.00062
323.15 K	–	1.38385 ± 0.0013	1.39248 ± 0.00066	1.3976 ± 0.00062	1.401 ± 0.00062	1.4032 ± 0.00062	1.40465 ± 0.00061	1.40575 ± 0.00062	1.4066 ± 0.00063	1.40701 ± 0.00063

CCCCOCCOCCO [3,6-dioxa-1-decanol] + O
refractive index
Conditions	x1 = 0.1	x1 = 0.2	x1 = 0.2999	x1 = 0.4	x1 = 0.5	x1 = 0.6	x1 = 0.7	x1 = 0.7998	x1 = 0.8999	x1 = 1
283.15 K	1.3916 ± 0.0011	1.41105 ± 0.00041	1.42035 ± 0.00043	1.42548 ± 0.00048	1.4286 ± 0.00051	1.4307 ± 0.00053	1.4323 ± 0.00053	1.4334 ± 0.00055	1.4342 ± 0.00056	1.4347 ± 0.00057
293.15 K	1.38935 ± 0.00046	1.40833 ± 0.00048	1.4174 ± 0.0005	1.42235 ± 0.00051	1.42535 ± 0.00052	1.42735 ± 0.00053	1.4289 ± 0.00053	1.4299 ± 0.00054	1.4307 ± 0.00055	1.4312 ± 0.00056
303.15 K	1.38705 ± 0.00048	1.4057 ± 0.00051	1.4146 ± 0.00052	1.41942 ± 0.00053	1.4224 ± 0.00054	1.42428 ± 0.00054	1.4258 ± 0.00055	1.42675 ± 0.00056	1.4275 ± 0.00057	1.42805 ± 0.00057
313.15 K	1.3842 ± 0.00051	1.4022 ± 0.00055	1.4109 ± 0.00057	1.41568 ± 0.00058	1.4185 ± 0.00059	1.4204 ± 0.00059	1.42185 ± 0.0006	1.42273 ± 0.00061	1.4234 ± 0.00062	1.424 ± 0.00062
323.15 K	1.3808 ± 0.0015	1.3982 ± 0.0008	1.4067 ± 0.00068	1.4113 ± 0.00065	1.41405 ± 0.00063	1.4159 ± 0.00063	1.41725 ± 0.00064	1.41815 ± 0.00064	1.4188 ± 0.00064	1.4194 ± 0.00064
